Source: the NIST ThermoML archive (doi:10.1021/je501106d)

Details: for speed of sound: Brillouin scattering; for vapor or sublimation pressure: Closed cell (Static) method

CCCCCC [hexane]
speed of sound [m/s], Liquid
Details | 1000 kPa | 2500 kPa | 4000 kPa | 5500 kPa | 7000 kPa | 7500 kPa | 8500 kPa
300.15 K | 1080 | 1090 | 1102 | 1115 | 1129 | – | 1140
313.15 K | 1027 | 1038 | 1049 | 1062 | 1077 | – | 1092
328.15 K | 964.1 | 975.9 | 988.6 | 1002 | 1017 | – | 1032
343.15 K | 900.3 | 913.8 | 927.8 | 942.3 | 957.3 | – | 972.8
353.15 K | 857 | 872 | 887.1 | 902.5 | 918.1 | – | 934
363.15 K | 813.22 | 829.9 | 846.4 | 862.9 | 879.3 | – | 895.7
373.15 K | 768.8 | 787.4 | 805.6 | 823.4 | 840.9 | – | 857.9
383.15 K | 723.8 | 744.7 | 764.8 | 784.1 | 802.8 | – | 820.7
393.15 K | 678.3 | 701.6 | 723.8 | 744.9 | 765 | – | 783.9
403.15 K | 632.1 | 658.2 | 682.8 | 705.9 | 727.5 | – | 747.7
413.15 K | 585.4 | 614.5 | 641.7 | 667 | 690.4 | – | 711.9
423.15 K | 538.1 | 570.5 | 600.6 | 628.3 | 653.7 | – | 676.7
433.15 K | 490.1 | 526.2 | 559.3 | 589.7 | – | 617.3 | 642
443.15 K | – | 481.5 | 518 | 551.3 | 581.2 | – | 607.8
448.15 K | – | 459.1 | 497.4 | 532.1 | 563.3 | – | 590.9
453.15 K | – | 436.6 | 476.7 | 513 | 545.4 | – | 574.1
458.15 K | – | 414 | 456 | 493.9 | 527.7 | – | 557.4
463.15 K | – | 391.3 | 435.2 | 474.8 | 510.1 | – | 540.9
468.15 K | – | 368.5 | 414.5 | 455.8 | 492.5 | – | 524.5
473.15 K | – | 345.7 | 393.7 | 436.8 | 475 | – | 508.2
478.15 K | – | 322.8 | 372.9 | 417.9 | 457.6 | – | 492.1
483.15 K | – | – | 352.1 | 399 | 440.3 | – | 476.1
488.15 K | – | – | 331.3 | 380.1 | – | – | –
493.15 K | – | – | 310.5 | 361.3 | – | – | –
498.15 K | – | – | 289.6 | 342.5 | – | – | –
503.15 K | – | – | 268.8 | 323.7 | – | – | –
506.15 K | – | – | 256.2 | 312.5 | – | – | –

Details | speed of sound, Gas [m/s] | speed of sound, Liquid [m/s] | vapor or sublimation pressure, Liquid [kPa]
300.15 K | – | 1073 | 14
313.15 K | – | 993 | 63
328.15 K | – | 926.8 | 94
343.15 K | – | 882.7 | 122
353.15 K | – | 838.8 | 161
363.15 K | – | 794.9 | 214
373.15 K | – | 751 | 260
383.15 K | 178.6 | 707.2 | 331
393.15 K | 176.6 | 663.4 | 413
403.15 K | 174.3 | 619.5 | 512
413.15 K | 171.6 | 575.6 | 627
423.15 K | 168.3 | 531.6 | 762
433.15 K | 164.2 | 487.5 | 924
443.15 K | 159.4 | 443.1 | 1113
448.15 K | 156.6 | 420.7 | 1210
453.15 K | 153.5 | 398.2 | 1322
458.15 K | 150.1 | 375.6 | 1447
463.15 K | 146.4 | 352.8 | 1563
468.15 K | 142.2 | 329.8 | 1700
473.15 K | 137.6 | 306.4 | 1843
478.15 K | 132.5 | 282.6 | 1992
483.15 K | 126.9 | 258.2 | 2144
488.15 K | 120.6 | 233 | 2313
493.15 K | 113.4 | 206.4 | 2491
498.15 K | 105.3 | 177.3 | 2677
503.15 K | 95.91 | 142 | 2878
506.15 K | 89.34 | 109.7 | 2991

Cc1ccccc1 [toluene]
Liquid
Details | speed of sound [m/s]
323.15 K | 1200.8
423.15 K | 806
523.15 K | 425.5
